Experimental data published in ChEMBL document CHEMBL2046329, “Furin inhibitors: importance of the positive formal charge and beyond” (Bioorg Med Chem, 2012).
Residues, ends and D or L forms follow the SMILES beside them.

Target: Furin (Homo sapiens, UniProt P09958)
Test: Inhibition of furin

Furin, sequence (P09958 whole entry): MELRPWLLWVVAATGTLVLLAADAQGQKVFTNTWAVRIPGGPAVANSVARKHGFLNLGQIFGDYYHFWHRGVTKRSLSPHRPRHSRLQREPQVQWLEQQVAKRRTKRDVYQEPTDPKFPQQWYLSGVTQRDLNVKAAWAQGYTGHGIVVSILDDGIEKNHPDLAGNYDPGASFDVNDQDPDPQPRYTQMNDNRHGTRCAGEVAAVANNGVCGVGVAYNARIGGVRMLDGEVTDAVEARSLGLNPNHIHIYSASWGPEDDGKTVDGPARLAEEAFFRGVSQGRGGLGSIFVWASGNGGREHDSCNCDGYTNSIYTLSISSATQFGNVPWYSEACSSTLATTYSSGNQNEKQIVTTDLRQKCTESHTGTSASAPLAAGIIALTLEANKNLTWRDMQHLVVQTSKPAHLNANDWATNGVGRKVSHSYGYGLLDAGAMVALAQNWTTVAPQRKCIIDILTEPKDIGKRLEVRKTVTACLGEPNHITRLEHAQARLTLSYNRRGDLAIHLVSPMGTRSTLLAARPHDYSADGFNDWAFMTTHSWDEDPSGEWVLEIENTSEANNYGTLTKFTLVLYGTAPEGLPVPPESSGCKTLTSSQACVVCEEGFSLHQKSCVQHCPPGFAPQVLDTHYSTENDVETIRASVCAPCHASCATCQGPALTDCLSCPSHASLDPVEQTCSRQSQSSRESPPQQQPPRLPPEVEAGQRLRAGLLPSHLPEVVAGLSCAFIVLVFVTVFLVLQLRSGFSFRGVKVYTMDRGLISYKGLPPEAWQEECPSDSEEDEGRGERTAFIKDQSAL

Compound	Ki [nM]
CC(C)[C@H](NC(=O)[C@H](CCCN=C(N)N)NCC(=O)Oc1ccccc1)C(=O)N[C@@H](CCCN=C(N)N)C(=O)NC1CCN(C(=N)N)CC1	53
CC(C)C[C@H](NC(=O)[C@@H](N)CC(C)C)C(=O)N[C@@H](CCCNC(=N)N)C(=O)N[C@H](C(=O)N[C@@H](CCCCN)C(=O)N[C@@H](CCCNC(=N)N)C(N)=O)C(C)C	800
CC(C)[C@H](NC(=O)[C@H](CCCN=C(N)N)NCC(=O)Oc1ccccc1)C(=O)N[C@@H](CCCN=C(N)N)C(=O)Nc1cccc(CN)c1	1320
CC(C)C[C@H](NC(=O)[C@@H](N)CC(C)C)C(=O)N[C@@H](CCCNC(=N)N)C(=O)N[C@H](C(=O)N[C@@H](CCCCN)C(=O)N[C@@H](CCCNC(=N)N)C(=O)O)C(C)C	420
CC(C)[C@H](NC(=O)[C@H](CCCN=C(N)N)NCC(=O)Oc1ccccc1)C(=O)N[C@@H](CCCN=C(N)N)C(=O)NCCCCCN=C(N)N	1070
CC(C)[C@H](NC(=O)[C@H](CCCNC(=N)N)NCC(=O)Oc1ccccc1)C(=O)N[C@@H](CCCNC(=N)N)C(=O)NCCCCN	7490
CC(C)[C@H](NC(=O)[C@H](CCCNC(=N)N)NCC(=O)Oc1ccccc1)C(=O)N[C@@H](CCCNC(=N)N)C(=O)NCCCNC(=N)N	63
CC(C)[C@H](NC(=O)[C@H](CCCN=C(N)N)NCC(=O)Oc1ccccc1)C(=O)N[C@@H](CCCN=C(N)N)C(=O)NCCCN	3020
CCc1ccc(NC(=O)[C@H](CCCNC(=N)N)NC(=O)[C@@H](NC(=O)[C@H](CCCNC(=N)N)NCC(=O)Oc2ccccc2)C(C)C)cc1	627
CC(=O)N[C@@H](CC(C)C)C(=O)N[C@@H](CCCCN)C(=O)N[C@@H](CCCN=C(N)N)C(=O)N[C@H](C(=O)N[C@@H](CCCCN)C(=O)N[C@@H](CCCN=C(N)N)C(N)=O)C(C)C (Ac-LKRVKR-NH2)	190
CC(=O)N[C@@H](CC(C)C)C(=O)N[C@@H](CC(C)C)C(=O)N[C@@H](CCCN=C(N)N)C(=O)N[C@H](C(=O)N[C@@H](CCCCN)C(=O)N[C@@H](CCCN=C(N)N)C(=O)O)C(C)C	3500
NC(N)=NCCC[C@H](NC(=O)[C@H](CCCN=C(N)N)NC(=O)[C@H](CCCN=C(N)N)NC(=O)[C@H](CCCN=C(N)N)NC(=O)[C@H](CCCN=C(N)N)NC(=O)[C@@H](N)CCCN=C(N)N)C(=O)O	114
CCCCCCCCCC(=O)N[C@@H](CCCN=C(N)N)C(=O)N[C@H](C(=O)N[C@@H](CCCCN)C(=O)Nc1ccc(C(=N)N)cc1)C(C)C	3.3
CC(C)[C@H](NC(=O)[C@H](CCCNC(=N)N)NCC(=O)Oc1ccccc1)C(=O)N[C@@H](CCCNC(=N)N)C(=O)NCCCCNC(=N)N	78
CSCC[C@H](NC(=O)[C@H](CC(C)C)NC(C)=O)C(=O)N[C@@H](CCCNC(=N)N)C(=O)N[C@H](C(=O)N[C@@H](CCCCN)C(=O)N[C@@H](CCCNC(=N)N)C(N)=O)C(C)C (Ac-LMRVKR-NH2)	1900
CC(=O)N[C@@H](CCCNC(=N)N)C(=O)N[C@H](C(=O)N[C@@H](CCCNC(=N)N)C(=O)Nc1ccc(C(=N)N)cc1)C(C)C	1
CC(C)[C@H](NC(=O)[C@H](CCCNC(=N)N)NCC(=O)Oc1ccccc1)C(=O)N[C@@H](CCCNC(=N)N)C(=O)Nc1ccc(CNC(=N)N)cc1	1430
CCCCCCCCCC(=O)N[C@@H](CCCN=C(N)N)C(=O)N[C@H](C(=O)N[C@@H](CCCN=C(N)N)C(=O)Nc1ccc(C(=N)N)cc1)C(C)C	1.6
N=C(N)NCCC[C@H](NC(=O)[C@H](CCCNC(=N)N)NC(=O)[C@H](CCCNC(=N)N)NC(=O)[C@H](CCCNC(=N)N)NC(=O)[C@@H](N)CCCNC(=N)N)C(=O)O (H-RRRRR-OH)	990
CC(C)[C@H](NC(=O)[C@H](CCCNC(=N)N)NCC(=O)Oc1ccccc1)C(=O)N[C@@H](CCCNC(=N)N)C(=O)NC1CCNCC1	9710
CC(=O)N[C@@H](CC(C)C)C(=O)N[C@@H](Cc1ccc(O)cc1)C(=O)N[C@@H](CCCN=C(N)N)C(=O)N[C@H](C(=O)N[C@@H](CCCCN)C(=O)N[C@@H](CCCN=C(N)N)C(N)=O)C(C)C (Ac-LYRVKR-NH2)	3400
CC(=O)N[C@@H](CC(C)C)C(=O)N[C@@H](CC(C)C)C(=O)N[C@@H](CCCN=C(N)N)C(=O)N[C@H](C(=O)N[C@@H](CCCCN)C(=O)N[C@@H](CCCN=C(N)N)C(N)=O)C(C)C	1400
N=C(N)NCCC[C@H](NC(=O)[C@H](CCCNC(=N)N)NC(=O)[C@H](CCCNC(=N)N)NC(=O)[C@@H](N)CCCNC(=N)N)C(=O)O (H-RRRR-OH)	6400
CC(C)[C@H](NC(=O)[C@H](CCCNC(=N)N)NCC(=O)Oc1ccccc1)C(=O)N[C@@H](CCCNC(=N)N)C(=O)NCCCCCN	553
CC(C)[C@H](NC(=O)[C@H](CCCN=C(N)N)NCC(=O)Oc1ccccc1)C(=O)N[C@@H](CCCN=C(N)N)C(=O)Nc1cccc(CN=C(N)N)c1	2730
